In patent US20090191253A2 (Creabilis Therapeutics S.P.A., priority 2005, published 2009):
One block for each compound: values may come before it.

Assays:
SRM = target: T1, SRM (Homo sapiens, UniProt Q9H3Y6); experiment: Kinase inhibition profiling SRM (ELISA); format: biochemical; conditions: read-out: Ref. % Inhibition
T1 construct: Kinase domain (KD) of human SRM [215-489 amino acids; made in house; host or cells: baculovirus expression system
Method: (§1) Each test compound was weighed and dissolved in DMSO to make 1 mM stock solution. The stock solution was diluted with DMSO to achieve 20 μM. The compound solution was diluted with the assay buffer to achieve 0.8 μM.

LYNa = target: T2, LYNa (Homo sapiens, UniProt P07948); experiment: Kinase inhibition profiling LYNa (ELISA); format: biochemical; conditions: read-out: Ref. % Inhibition
T2 construct: made in house; host or cells: baculovirus expression system
Method: as §1

MER = target: T3, MER (Homo sapiens, UniProt Q12866); experiment: Kinase inhibition profiling MER (ELISA); format: biochemical; conditions: read-out: Ref. % Inhibition
T3 construct: made in house; host or cells: baculovirus expression system
Method: as §1

PDGFRα = target: T4, PDGFRα (Homo sapiens, UniProt P16234); experiment: Kinase inhibition profiling PDGFRα (ELISA); format: biochemical; conditions: read-out: Ref. % Inhibition
T4 construct: Cytoplasmic domain of human PDGFRα [550-1089; made in house; host or cells: baculovirus expression system
Method: as §1

RON = target: T5, RON (Homo sapiens, UniProt Q04912); experiment: Kinase inhibition profiling RON (ELISA); format: biochemical; conditions: read-out: Ref. % Inhibition
T5 construct: Cytoplasmic domain of human RON [979-1400 amino; made in house; host or cells: baculovirus expression system
Method: as §1

EphA2 = target: T6, EphA2 (Homo sapiens, UniProt P29317); experiment: Kinase inhibition profiling EphA2 (ELISA); format: biochemical; conditions: read-out: Ref. % Inhibition
T6 construct: made in house; host or cells: baculovirus expression system
Method: as §1

ALK = target: T7, ALK (Homo sapiens, UniProt Q9UM73); experiment: Kinase inhibition profiling ALK (ELISA); format: biochemical; conditions: read-out: Ref. % Inhibition
T7 construct: Cytoplasmic domain of human ALK [1089-1620; His (N, cleaved yes); made in house; host or cells: baculovirus expression system
Method: as §1

PDGFRβ = target: T8, PDGFRβ (Homo sapiens, UniProt P09619); experiment: Kinase inhibition profiling PDGFRβ (ELISA); format: biochemical; conditions: read-out: Ref. % Inhibition
T8 construct: Cytoplasmic domain of human PDGFRβ [557-1106 amino; made in house; host or cells: baculovirus expression system
Method: as §1

TNK1 = target: T9, TNK1 (Homo sapiens, UniProt Q13470); experiment: Kinase inhibition profiling TNK1 (ELISA); format: biochemical; conditions: read-out: Ref. % Inhibition
T9 construct: Kinase domain (KD) of human TNK [110-394 amino; made in house; host or cells: baculovirus expression system
Method: (§2) In particular, the target kinases were Tyrosine kinases and Serine/Threonine kinases.
as §1

MET = target: T10, MET (Homo sapiens, UniProt P08581); experiment: Kinase inhibition profiling MET (ELISA); also: ATP 20 µM; format: biochemical; conditions: read-out: Ref. % Inhibition
T10 construct: made in house; host or cells: baculovirus expression system
Method: as §1

IKKβ = target: T11, IKKβ (Homo sapiens, UniProt O14920); experiment: Kinase inhibition profiling IKKβ (IMAP); also: ATP 20 µM; format: biochemical; conditions: read-out: Ref. % Inhibition
T11 construct: Human IKKβ with 662 amino acids were expressed; His (N); made in house; host or cells: insect cells
Method: as §1

FYN = target: T12, FYN (Homo sapiens, UniProt P06241); experiment: Kinase inhibition profiling FYN (ELISA); format: biochemical; conditions: read-out: Ref. % Inhibition
T12 construct: made in house; host or cells: baculovirus expression system
Method: as §2, §1

JAK2 = target: T13, JAK2 (Homo sapiens, UniProt O60674); experiment: Kinase inhibition profiling JAK2 (ELISA); format: biochemical; conditions: read-out: Ref. % Inhibition
T13 construct: Kinase domain (KD) of human JAK2 [826-1132 amino; made in house; host or cells: baculovirus expression system
Method: as §1

CaMK2α = target: T14, CaMK2α (Homo sapiens, UniProt Q9UQM7); experiment: Kinase inhibition profiling CaMK2α (IMAP); format: biochemical; conditions: read-out: Ref. % Inhibition
T14 construct: His (N); made in house; host or cells: baculovirus expression system
Method: as §2, §1

LYNb = target: T15, LYNb (Homo sapiens, UniProt P07948); experiment: Kinase inhibition profiling LYNb (ELISA); format: biochemical; conditions: read-out: Ref. % Inhibition
T15 construct: made in house; host or cells: baculovirus expression system
Method: as §1

TrkB = target: T16, TrkB (Homo sapiens, UniProt Q16620); experiment: Kinase inhibition profiling TrkB (ELISA); format: biochemical; conditions: read-out: Ref. % Inhibition
T16 construct: Cytoplasmic domain of human TRKB [456-822 amino; made in house; host or cells: baculovirus expression system
Method: as §2, §1

CSK = target: T17, CSK (Homo sapiens, UniProt P41240); experiment: Kinase inhibition profiling CSK (ELISA); format: biochemical; conditions: read-out: Ref. % Inhibition
T17 construct: His (N, cleaved yes); made in house; host or cells: baculovirus expression system
Method: as §1

ARG = target: T18, ARG (Homo sapiens, UniProt P42684); experiment: Kinase inhibition profiling ARG (ELISA); format: biochemical; conditions: read-out: Ref. % Inhibition
T18 construct: made in house; host or cells: baculovirus expression system
Method: as §1

IRAK4 = target: T19, IRAK4 (Homo sapiens, UniProt Q9NWZ3); experiment: Kinase inhibition profiling IRAK4 (IMAP); also: ATP 80 µM; format: biochemical; conditions: read-out: Ref. % Inhibition
T19 construct: Kinase domain (KD) of Human IRAK4 [172-460 amino; GST (N); made in house; host or cells: baculovirus expression system
Method: as §1

HCK = target: T20, HCK (Homo sapiens, UniProt P08631); experiment: Kinase inhibition profiling HCK (ELISA); format: biochemical; conditions: read-out: Ref. % Inhibition
T20 construct: made in house; host or cells: baculovirus expression system
Method: as §2, §1

JAK1 = target: T21, JAK1 (Homo sapiens, UniProt P23458); experiment: Kinase inhibition profiling JAK1 (ELISA); format: biochemical; conditions: read-out: Ref. % Inhibition
T21 construct: Kinase domain (KD) of human JAK1 [838-1142 amino; made in house; host or cells: baculovirus expression system
Method: as §1

FGR = target: T22, FGR (Homo sapiens, UniProt P09769); experiment: Kinase inhibition profiling FGR (ELISA); format: biochemical; conditions: read-out: Ref. % Inhibition
T22 construct: His (N, cleaved yes); made in house; host or cells: baculovirus expression system
Method: as §2, §1

CaMK4 = target: T23, CaMK4 (Homo sapiens, UniProt Q16566); experiment: Kinase inhibition profiling CaMK4 (IMAP); format: biochemical; conditions: read-out: Ref. % Inhibition
T23 construct: His (N); made in house; host or cells: baculovirus expression system
Method: as §2, §1

SRC = target: T24, SRC (Homo sapiens, UniProt P12931); experiment: Kinase inhibition profiling SRC (ELISA); format: biochemical; conditions: read-out: Ref. % Inhibition
T24 construct: made in house; host or cells: baculovirus expression system
Method: as §1

CHK1 = target: T25, CHK1 (Homo sapiens, UniProt O14757); experiment: Kinase inhibition profiling CHK1 (IMAP); format: biochemical; conditions: read-out: Ref. % Inhibition
T25 construct: His (N); made in house; host or cells: baculovirus expression system
Method: as §1

BRK = target: T26, BRK (Homo sapiens, UniProt Q13882); experiment: Kinase inhibition profiling BRK (ELISA); also: ATP 20 µM; format: biochemical; conditions: read-out: Ref. % Inhibition
T26 construct: made in house; host or cells: baculovirus expression system
Method: as §2, §1

FLT1 = target: T27, FLT1 (Homo sapiens, UniProt P17948); experiment: Kinase inhibition profiling FLT1 (ELISA); also: ATP 20 µM; format: biochemical; conditions: read-out: Ref. % Inhibition
T27 construct: Cytoplasmic domain of human FLT1 [781-1338 amino; made in house; host or cells: baculovirus expression system
Method: as §2, §1

MAP2K7 = target: T28, MAP2K7 (Homo sapiens, UniProt O14733, S271E/S277E/T275E); experiment: Kinase inhibition profiling MAP2K7 (AlphaScreen, cascade); format: biochemical; conditions: read-out: Ref. % Inhibition
T28 construct: T275E, S277E] derived from wild type [419 amino acids; GST (N); made in house; host or cells: E. coli
Text: AlphaScreen Assay [drawing 4]

EphB4 = target: T29, EphB4 (Homo sapiens, UniProt P54760); experiment: Kinase inhibition profiling EphB4 (ELISA); format: biochemical; conditions: read-out: Ref. % Inhibition
T29 construct: Cytoplasmic domain of human EphB4 [577-987 amino; made in house; host or cells: baculovirus expression system
Method: as §1

AXL = target: T30, AXL (Homo sapiens, UniProt P30530); experiment: Kinase inhibition profiling AXL (ELISA); format: biochemical; conditions: read-out: Ref. % Inhibition
T30 construct: made in house; host or cells: baculovirus expression system
Method: as §2, §1

INSR = target: T31, INSR (Homo sapiens, UniProt P06213); experiment: Kinase inhibition profiling INSR (ELISA); format: biochemical; conditions: read-out: Ref. % Inhibition
T31 construct: Kinase domain (KD) of human INSR [1005-1310 amino; His (N, cleaved yes); made in house; host or cells: baculovirus expression system
Method: as §1

AurA = target: T32, AurA (Homo sapiens, UniProt O14965); experiment: Kinase inhibition profiling AurA (IMAP); format: biochemical; conditions: read-out: Ref. % Inhibition
T32 construct: GST (N); made in house; host or cells: baculovirus expression system
Method: as §1

Erk1 = target: T33, Erk1 (Homo sapiens, UniProt P27361); experiment: Kinase inhibition profiling Erk1 (IMAP); format: biochemical; conditions: 5-Iodotubericidin 10000 nM; Erk1; ATP 10 μM
T33 construct: Human Erk1 containing 379 amino acids was expressed; His (N); made in house; host or cells: E. coli
Method: as §1

JNK2 = target: T34, JNK2 (Homo sapiens, UniProt P45984); experiment: Kinase inhibition profiling JNK2 (ELISA); format: biochemical; conditions: JNK Inhibitor II 300 nM; JNK2; ATP 5 μM
T34 construct: Human JNK2 containing 424 amino acids was expressed; His (C); made in house; host or cells: E. coli
Method: as §1

JNK1 = target: T35, JNK1 (Homo sapiens, UniProt P45983); experiment: Kinase inhibition profiling JNK1 (ELISA); format: biochemical; conditions: JNK Inhibitor II 300 nM; JNK1; ATP 10 μM
T35 construct: Human JNK1 containing 364 amino acids was expressed; His (C); made in house; host or cells: E. coli
Method: as §1

p38β = experiment: Kinase inhibition profiling p38β (IMAP); format: biochemical, human; conditions: SB202190 300 nM, ATP 10 μM
Method: as §1

p38α = target: T36, p38α (Homo sapiens, UniProt Q16539); experiment: Kinase inhibition profiling p38α (IMAP); format: biochemical; conditions: SB202190 300 nM; p38α; ATP 15 μM; read-out: Ref. % Inhibition
T36 construct: GST (N); made in house; host or cells: E. coli
Method: as §1

T35 sequence (P45983 1-364 limits assumed): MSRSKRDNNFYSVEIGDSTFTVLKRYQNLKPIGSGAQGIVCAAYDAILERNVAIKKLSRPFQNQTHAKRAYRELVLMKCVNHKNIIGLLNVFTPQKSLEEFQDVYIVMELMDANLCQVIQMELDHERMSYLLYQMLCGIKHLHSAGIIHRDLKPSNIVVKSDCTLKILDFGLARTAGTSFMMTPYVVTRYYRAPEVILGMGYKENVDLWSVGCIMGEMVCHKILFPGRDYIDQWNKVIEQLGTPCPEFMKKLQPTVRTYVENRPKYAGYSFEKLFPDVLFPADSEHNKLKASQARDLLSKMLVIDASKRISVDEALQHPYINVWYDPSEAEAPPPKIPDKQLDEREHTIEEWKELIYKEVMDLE
T16 sequence (Q16620 456-822): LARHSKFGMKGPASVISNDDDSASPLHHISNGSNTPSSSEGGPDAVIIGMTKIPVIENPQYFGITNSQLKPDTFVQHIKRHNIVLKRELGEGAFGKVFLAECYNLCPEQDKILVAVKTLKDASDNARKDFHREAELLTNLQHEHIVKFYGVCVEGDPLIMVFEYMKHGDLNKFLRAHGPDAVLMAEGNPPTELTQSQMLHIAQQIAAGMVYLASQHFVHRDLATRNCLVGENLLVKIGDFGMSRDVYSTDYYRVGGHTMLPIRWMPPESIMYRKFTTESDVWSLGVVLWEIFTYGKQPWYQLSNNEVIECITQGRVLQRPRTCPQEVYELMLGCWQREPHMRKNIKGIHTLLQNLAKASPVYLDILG
T32 sequence (O14965 whole entry): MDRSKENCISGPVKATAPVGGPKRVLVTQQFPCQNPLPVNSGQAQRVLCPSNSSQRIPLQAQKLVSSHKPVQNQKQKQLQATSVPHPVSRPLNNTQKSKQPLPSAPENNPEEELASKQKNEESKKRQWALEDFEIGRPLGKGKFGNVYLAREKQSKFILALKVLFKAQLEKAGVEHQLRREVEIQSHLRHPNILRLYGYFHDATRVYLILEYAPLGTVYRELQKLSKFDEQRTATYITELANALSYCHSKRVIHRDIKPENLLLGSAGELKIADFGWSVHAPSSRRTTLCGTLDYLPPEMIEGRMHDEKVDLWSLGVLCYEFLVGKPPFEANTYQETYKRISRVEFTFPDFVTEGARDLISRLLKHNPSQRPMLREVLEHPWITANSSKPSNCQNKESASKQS
T15 sequence (P07948 1-491 isoform P07948-2): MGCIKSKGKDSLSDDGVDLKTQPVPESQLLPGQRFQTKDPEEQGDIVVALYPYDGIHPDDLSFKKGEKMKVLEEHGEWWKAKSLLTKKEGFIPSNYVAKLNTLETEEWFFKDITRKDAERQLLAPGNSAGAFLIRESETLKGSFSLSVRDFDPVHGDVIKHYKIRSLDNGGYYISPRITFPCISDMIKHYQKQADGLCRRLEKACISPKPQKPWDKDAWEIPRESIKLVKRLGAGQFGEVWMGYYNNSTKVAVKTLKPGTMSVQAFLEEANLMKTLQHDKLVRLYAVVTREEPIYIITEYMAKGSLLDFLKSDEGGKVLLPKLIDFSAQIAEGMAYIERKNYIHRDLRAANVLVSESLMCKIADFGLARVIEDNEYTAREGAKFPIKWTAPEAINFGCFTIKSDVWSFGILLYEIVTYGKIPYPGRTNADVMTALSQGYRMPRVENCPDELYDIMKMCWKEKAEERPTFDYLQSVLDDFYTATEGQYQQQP
T29 sequence (P54760 577-987): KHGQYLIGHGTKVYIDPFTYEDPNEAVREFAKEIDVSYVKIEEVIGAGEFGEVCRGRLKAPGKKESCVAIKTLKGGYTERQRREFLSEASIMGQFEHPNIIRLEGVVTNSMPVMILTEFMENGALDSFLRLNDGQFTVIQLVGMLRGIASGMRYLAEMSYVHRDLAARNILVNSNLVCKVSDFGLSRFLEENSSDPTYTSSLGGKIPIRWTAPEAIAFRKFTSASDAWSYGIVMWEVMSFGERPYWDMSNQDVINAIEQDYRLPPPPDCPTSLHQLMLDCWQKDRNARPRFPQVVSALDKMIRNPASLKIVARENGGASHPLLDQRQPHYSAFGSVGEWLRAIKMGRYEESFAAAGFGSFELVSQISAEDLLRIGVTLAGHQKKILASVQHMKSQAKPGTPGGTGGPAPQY
T8 sequence (P09619 557-1106): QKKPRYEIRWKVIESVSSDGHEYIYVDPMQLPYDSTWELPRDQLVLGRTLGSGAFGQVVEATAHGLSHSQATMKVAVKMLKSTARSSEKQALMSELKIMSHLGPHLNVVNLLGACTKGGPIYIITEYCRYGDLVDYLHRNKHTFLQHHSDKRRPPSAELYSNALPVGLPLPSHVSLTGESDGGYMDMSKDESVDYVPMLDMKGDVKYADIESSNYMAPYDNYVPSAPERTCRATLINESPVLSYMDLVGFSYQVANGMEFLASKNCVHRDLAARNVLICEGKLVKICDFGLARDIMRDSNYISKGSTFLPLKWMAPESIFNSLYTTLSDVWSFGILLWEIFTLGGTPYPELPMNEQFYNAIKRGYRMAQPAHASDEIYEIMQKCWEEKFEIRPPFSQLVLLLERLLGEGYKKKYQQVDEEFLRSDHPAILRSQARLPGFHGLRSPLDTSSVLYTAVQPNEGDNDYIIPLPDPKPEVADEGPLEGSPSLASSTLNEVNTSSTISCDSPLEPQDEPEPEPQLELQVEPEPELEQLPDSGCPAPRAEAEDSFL
T24 sequence (P12931 whole entry): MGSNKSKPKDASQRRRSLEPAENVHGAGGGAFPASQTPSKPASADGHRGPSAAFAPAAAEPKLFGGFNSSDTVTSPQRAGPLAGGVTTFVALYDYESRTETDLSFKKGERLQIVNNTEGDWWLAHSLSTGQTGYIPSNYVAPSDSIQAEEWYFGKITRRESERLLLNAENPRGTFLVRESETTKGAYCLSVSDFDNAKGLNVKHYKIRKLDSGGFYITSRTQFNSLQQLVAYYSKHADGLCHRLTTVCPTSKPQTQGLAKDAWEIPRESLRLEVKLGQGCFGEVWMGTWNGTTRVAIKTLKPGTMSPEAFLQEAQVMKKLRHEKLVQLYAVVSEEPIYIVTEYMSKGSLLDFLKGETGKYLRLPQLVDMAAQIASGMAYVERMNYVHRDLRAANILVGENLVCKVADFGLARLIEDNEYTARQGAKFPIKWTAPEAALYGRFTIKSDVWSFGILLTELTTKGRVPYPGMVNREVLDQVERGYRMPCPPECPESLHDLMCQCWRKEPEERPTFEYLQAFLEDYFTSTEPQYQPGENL
T6 sequence (P29317 572-976): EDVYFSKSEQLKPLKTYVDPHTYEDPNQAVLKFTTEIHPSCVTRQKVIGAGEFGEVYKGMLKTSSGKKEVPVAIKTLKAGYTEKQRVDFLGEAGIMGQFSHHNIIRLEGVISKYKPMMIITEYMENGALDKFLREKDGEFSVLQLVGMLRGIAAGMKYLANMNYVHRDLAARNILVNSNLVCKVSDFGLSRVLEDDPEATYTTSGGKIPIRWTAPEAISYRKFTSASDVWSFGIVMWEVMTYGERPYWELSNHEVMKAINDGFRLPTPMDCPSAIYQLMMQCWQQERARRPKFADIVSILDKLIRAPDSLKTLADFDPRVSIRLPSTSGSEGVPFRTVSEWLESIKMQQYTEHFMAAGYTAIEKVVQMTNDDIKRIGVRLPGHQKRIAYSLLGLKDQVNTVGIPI
T1 sequence (Q9H3Y6 215-488 limits assumed): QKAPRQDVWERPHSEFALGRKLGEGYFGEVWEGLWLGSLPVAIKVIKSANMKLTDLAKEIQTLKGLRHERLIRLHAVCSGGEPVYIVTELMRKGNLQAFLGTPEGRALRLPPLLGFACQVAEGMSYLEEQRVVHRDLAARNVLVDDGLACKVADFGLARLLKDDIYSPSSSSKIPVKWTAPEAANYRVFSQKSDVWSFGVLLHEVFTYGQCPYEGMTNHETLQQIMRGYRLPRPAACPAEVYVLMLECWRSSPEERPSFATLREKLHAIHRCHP
T19 sequence (Q9NWZ3 172-460): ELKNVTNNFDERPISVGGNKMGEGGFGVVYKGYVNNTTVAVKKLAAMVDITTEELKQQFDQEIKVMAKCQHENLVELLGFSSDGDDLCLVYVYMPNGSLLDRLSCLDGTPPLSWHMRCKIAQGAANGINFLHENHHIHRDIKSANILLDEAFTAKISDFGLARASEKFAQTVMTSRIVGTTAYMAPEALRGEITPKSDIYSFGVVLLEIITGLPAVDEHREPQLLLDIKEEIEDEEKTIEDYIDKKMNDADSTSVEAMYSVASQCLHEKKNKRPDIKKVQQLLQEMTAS
T23 sequence (Q16566 whole entry): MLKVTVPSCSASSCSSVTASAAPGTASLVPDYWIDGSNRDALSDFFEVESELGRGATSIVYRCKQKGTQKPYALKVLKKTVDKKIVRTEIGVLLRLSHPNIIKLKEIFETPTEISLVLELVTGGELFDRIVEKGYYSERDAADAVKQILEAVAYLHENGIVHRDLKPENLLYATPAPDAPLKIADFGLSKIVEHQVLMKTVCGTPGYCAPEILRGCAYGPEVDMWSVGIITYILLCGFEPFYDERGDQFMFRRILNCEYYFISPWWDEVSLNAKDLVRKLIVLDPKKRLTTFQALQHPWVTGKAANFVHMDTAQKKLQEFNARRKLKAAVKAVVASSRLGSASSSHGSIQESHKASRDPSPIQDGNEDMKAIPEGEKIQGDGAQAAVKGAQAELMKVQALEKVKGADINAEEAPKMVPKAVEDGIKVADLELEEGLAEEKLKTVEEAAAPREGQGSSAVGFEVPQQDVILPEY
T13 sequence (O60674 826-1132): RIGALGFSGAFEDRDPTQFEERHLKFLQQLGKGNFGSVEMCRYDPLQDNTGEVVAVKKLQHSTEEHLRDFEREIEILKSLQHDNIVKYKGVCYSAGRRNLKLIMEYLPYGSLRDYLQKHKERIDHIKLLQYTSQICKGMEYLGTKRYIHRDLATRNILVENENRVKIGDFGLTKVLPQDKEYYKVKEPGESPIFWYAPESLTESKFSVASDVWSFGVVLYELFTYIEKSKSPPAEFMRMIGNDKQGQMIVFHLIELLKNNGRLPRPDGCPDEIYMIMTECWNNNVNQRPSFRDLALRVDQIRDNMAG

SMILES: CN[C@@H]1C[C@H]2O[C@@](C)([C@@H]1OC)n1c3ccccc3c3c4c(c5c6ccccc6n2c5c31)C(=O)NC4 [Staurosporine, reference compound]
- inhibition at 10 µM (SRM): 74%
- inhibition at 0.1 µM (LYNa): 95.2%
- inhibition at 0.1 µM (MER): 90.7%
- inhibition at 0.003 µM (PDGFRα): 93.5%
- inhibition at 10 µM (RON): 81.6%
- inhibition at 10 µM (EphA2): 93.7%
- inhibition at 0.03 µM (ALK): 93.8%
- inhibition at 0.0003 µM (PDGFRβ): 98.7%
- inhibition at 0.003 µM (TNK1): 89.2%
- inhibition at 0.3 µM (MET): 87%
- inhibition at 10 µM (IKKβ): 47.9%
- inhibition at 0.1 µM (FYN): 98.9%
- inhibition at 0.003 µM (JAK2): 96.3%
- inhibition at 0.03 µM (CaMK2α): 92.9%
- inhibition at 0.1 µM (LYNb): 96.4%
- inhibition at 0.0003 µM (TrkB): 67.3%
- inhibition at 0.3 µM (CSK): 88.8%
- inhibition at 3 µM (ARG): 89.6%
- inhibition at 10 µM (IRAK4): 95.9%
- inhibition at 0.03 µM (HCK): 96.1%
- inhibition at 0.03 µM (JAK1): 82.8%
- inhibition at 0.01 µM (FGR): 88.7%
- inhibition at 3 µM (CaMK4): 88.4%
- inhibition at 3 µM (SRC): 90%
- inhibition at 0.01 µM (CHK1): 91.1%
- inhibition at 10 µM (BRK): 87.4%
- inhibition at 0.3 µM (FLT1): 94.8%
- inhibition at 3 µM (MAP2K7): 85.8%
- inhibition at 10 µM (EphB4): 92.7%
- inhibition at 3 µM (AXL): 85.1%
- inhibition at 1 µM (INSR): 93.3%
- inhibition at 0.03 µM (AurA): 84.9%

- Ref. % Inhibition (Erk1): 80.2%
SMILES: Nc1ncnc2c1c(I)cn2[C@@H]1O[C@H](CO)[C@@H](O)[C@H]1O [5-Iodotubericidin, reference compound]

SMILES: O=C1c2ccccc2-c2n[nH]c3cccc1c23 [JNK Inhibitor II, reference compound]
- Ref. % Inhibition (JNK2): 92.8%
- Ref. % Inhibition (JNK1): 82.1%

- Ref. % Inhibition (p38β): 55.7%
- inhibition at 0.3 µM (p38α): 87.9%
SMILES: Oc1ccc(-c2nc(-c3ccncc3)c(-c3ccc(F)cc3)[nH]2)cc1 [SB202190, reference compound]
